Measured values from patent publication US20210114983A1, “Cathepsin C inhibitors” (National Institute of Biological Sciences, Beijing, priority 2018, published 2021).

These compounds were tested against rhCatC (Cathepsin C) (Homo sapiens, UniProt P53634) (assay: In Vitro CatC Enzyme Assay). Conditions: read-out: Cat C Enzy (Cathepsin C inhibitory activity, IC50).
Format: biochemical
Description: In Vitro CatC Enzyme Assay
The CatC enzyme assay was performed in black 384-well plate. Firstly, rhCatC (440 nM) was activated by rhCatL (300 nM) in activation buffer (25 mM MES, 5 mM DTT, pH 6.0) at room temperature for 2 h and then activated rhCatC was diluted to 4.4 nM in assay buffer (25 mM MES, 50 mM NaCl, 5 mM DTT, 0.01% (v/v) Triton X100, pH 6.0), 14 μL activated rhCatC and 1 μL compound in 10% DMSO or 10% DMSO were incubated at room temperature for 3 h, and 5 μL substrate (Gly-Phe-AFC) was added to final concentration of 100 μM. After 60 min reaction, the product of the reaction was measured in the Enspire plate reader using Ex λ400 nm and Em λ505 nm for AFC. A standard irreversible CatC inhibitor 10 by AstraZeneca (J. Med. Chem. 2014, 57, 2357-2367) was used as an inhibitor control in the assay.

Chain of rhCatC (Cathepsin C) (P53634 25-134 limits assumed): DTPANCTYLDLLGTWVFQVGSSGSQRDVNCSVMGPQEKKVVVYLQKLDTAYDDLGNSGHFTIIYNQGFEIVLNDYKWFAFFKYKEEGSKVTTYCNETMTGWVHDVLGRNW
Chain of rhCatC (Cathepsin C) (P53634 231-394 limits assumed): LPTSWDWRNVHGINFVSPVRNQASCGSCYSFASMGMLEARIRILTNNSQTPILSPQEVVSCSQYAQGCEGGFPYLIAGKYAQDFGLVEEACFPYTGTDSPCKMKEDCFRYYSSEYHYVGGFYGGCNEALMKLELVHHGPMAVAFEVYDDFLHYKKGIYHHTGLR
Chain of rhCatC (Cathepsin C) (P53634 395-463 limits assumed): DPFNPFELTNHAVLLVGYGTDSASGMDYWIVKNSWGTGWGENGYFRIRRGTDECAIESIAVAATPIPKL

| SMILES | IC50 [nM] |
| --- | --- |
| C=CC(=O)Nc1cccc(Oc2nc(Nc3ccc(N4CCN(C)CC4)cc3OC)ccc2Cl)c1 [Compound 1, N-(3-((3-chloro-6-((2-methoxy-4-(4-methylpiperazin-1-yl)phenyl)amino)pyridin-2-yl)oxy)phenyl)acrylamide] | 300 to 30000 |
| C=CC(=O)Nc1cccc(Oc2nc(Nc3ccc(N4CCOCC4)cc3)ccc2Cl)c1 [Compound 2, N-(3-((3-chloro-6-((4-morpholinophenyl)amino)pyridin-2-yl)oxy)phenyl)acrylamide] | 300 to 30000 |
| C=CC(=O)Nc1cccc(Oc2nc(Nc3ccccc3)ccc2Cl)c1 [Compound 3, N-(3-((3-chloro-6-(phenylamino)pyridin-2-yl)oxy)phenyl)acrylamide] | 300 to 30000 |
| C=CC(=O)Nc1cccc(Oc2nc(Nc3ccc(N4CCN(C)CC4)cc3)ccc2Cl)c1 [Compound 4, N-(3-((3-chloro-6-((4-(4-methylpiperazin-1-yl)phenyl)amino)pyridin-2-yl)oxy)phenyl)acrylamide] | 300 to 30000 |
| C=CC(=O)Nc1cccc(Oc2cccc(Nc3ccc(N4CCN(C)CC4)cc3)n2)c1 [Compound 5, N-(3-((6-((4-(4-methylpiperazin-1-yl)phenyl)amino)pyridin-2-yl)oxy)phenyl)acrylamide] | 300 to 30000 |
| C=CC(=O)Nc1cccc(Oc2nc(Nc3cccc(CN)c3)ccc2Cl)c1 [Compound 6, N-(3-((6-((3-(aminomethyl)phenyl)amino)-3-chloropyridin-2-yl)oxy)phenyl)acrylamide] | 300 to 30000 |
| C=CC(=O)Nc1cccc(Oc2nc(Nc3ccc(N4CCNCC4)cc3)ccc2Cl)c1 [Compound 7, N-(3-((3-chloro-6-((4-(piperazin-1-yl)phenyl)amino)pyridin-2-yl)oxy)phenyl)acrylamide] | 300 to 30000 |
| C/C=C/C(=O)Nc1cccc(Oc2nc(Nc3ccc(N4CCNCC4)cc3)ccc2Cl)c1 [Compound 8] | 300 to 30000 |
| C=CC(=O)Nc1cccc(Oc2nc(Nc3ccc(N4CCC[C@@H](N)C4)cc3OC)ccc2Cl)c1 [Compound 9, (R)-N-(3-((6-((4-(3-aminopiperidin-1-yl)-2-methoxyphenyl)amino)-3-chloropyridin-2-yl)oxy)phenyl)acrylamide] | 300 to 30000 |
| C=CC(=O)Nc1cccc(Oc2nc(Nc3ccc(CCN)cc3)ccc2Cl)c1 [Compound 10, N-(3-((6-((4-(2-aminoethyl)phenyl)amino)-3-chloropyridin-2-yl)oxy)phenyl)acrylamide] | 300 to 30000 |
| C=CC(=O)Nc1cccc(Oc2nc(Nc3ccc(N4CCN(C)CC4)c(OC)c3)ccc2Cl)c1 [Compound 11, N-(3-((3-chloro-6-((3-methoxy-4-(4-methylpiperazin-1-yl)phenyl)amino)pyridin-2-yl)oxy)phenyl)acrylamide] | 300 to 30000 |
| COc1cc(N2CCN(C)CC2)ccc1Nc1ccc(Cl)c(Oc2cccc(NC(=O)C=C(C)C)c2)n1 [Compound 12, N-(3-((3-chloro-6-((2-methoxy-4-(4-methylpiperazin-1-yl)phenyl)amino)pyridin-2-yl)oxy)phenyl)-3-methylbut-2-enamide] | 300 to 30000 |
| C#CC(=O)Nc1cccc(Oc2nc(Nc3ccc(N4CCN(C)CC4)cc3OC)ccc2Cl)c1 [Compound 13, N-(3-((3-chloro-6-((2-methoxy-4-(4-methylpiperazin-1-yl)phenyl)amino)pyridin-2-yl)oxy)phenyl)propiolamide] | 300 to 30000 |
| C=CC(=O)Nc1cccc(Oc2nc(Nc3ccc(N4CCN(CC5CC5)CC4)cc3)ccc2Cl)c1 [Compound 14, N-(3-((3-chloro-6-((4-(4-(cyclopropylmethyl)piperazin-1-yl)phenyl)amino)pyridin-2-yl)oxy)phenyl)acrylamide] | 300 to 30000 |
| C=CC(=O)Nc1cccc(Oc2nc(Nc3ccc(N4CCN(CC5CCCC5)CC4)cc3)ccc2Cl)c1 [Compound 15, N-(3-((3-chloro-6-((4-(4-(cyclopentylmethyl)piperazin-1-yl)phenyl)amino)pyridin-2-yl)oxy)phenyl)acrylamide] | 300 to 30000 |
| C=CC(=O)Nc1cccc(Oc2nc(Nc3ccc(N4CCN(C)CC4)cc3OC)ccc2C(F)(F)F)c1 [Compound 16, N-(3-((6-((2-methoxy-4-(4-methylpiperazin-1-yl)phenyl)amino)-3-(trifluoromethyl)pyridin-2-yl)oxy)phenyl)acrylamide] | 300 to 30000 |
| C=CC(=O)Nc1cccc(Oc2nc(Nc3ccc(N4CCN(C)CC4)cc3OC)ccc2C#N)c1 [Compound 17, N-(3-((3-cyano-6-((2-methoxy-4-(4-methylpiperazin-1-yl)phenyl)amino)pyridin-2-yl)oxy)phenyl)acrylamide] | 300 to 30000 |

| SMILES | IC50 [nM] |
| --- | --- |
| C=CC(=O)Nc1cc(Oc2nc(Nc3ccc(N4CCN(C)CC4)cc3OC)ccc2Cl)ccc1C [Compound 18, N-(5-((3-chloro-6-((2-methoxy-4-(4-methylpiperazin-1-yl)phenyl)amino)pyridin-2-yl)oxy)-2-methylphenyl)acrylamide] | 300 to 30000 |
| C=CC(=O)Nc1cccc(Nc2nc(Nc3ccc(N4CCN(C)CC4)cc3OC)ccc2Cl)c1 [Compound 19, N-(3-((3-chloro-6-((2-methoxy-4-(4-methylpiperazin-1-yl)phenyl)amino)pyridin-2-yl)amino)phenyl)acrylamide] | 300 to 30000 |
| C=CC(=O)Nc1cccc(Oc2nc(Nc3ccc(N4CCN(C)CC4)cc3OC)ccc2N2CCCC2)c1 [Compound 20, N-(3-((6-((2-methoxy-4-(4-methylpiperazin-1-yl)phenyl)amino)-3-(pyrrolidin-1-yl)pyridin-2-yl)oxy)phenyl)acrylamide] | 3 to 300 |
| C=CC(=O)Nc1cccc(Oc2cccc(Nc3ccc(N4CCN(C)CC4)cc3OC)n2)c1 [Compound 21, N-(3-((6-((2-methoxy-4-(4-methylpiperazin-1-yl)phenyl)amino)pyridin-2-yl)oxy)phenyl)acrylamide] | 300 to 30000 |
| C=CC(=O)Nc1cccc(Oc2nc(Nc3ccc(N4CCN(C)CC4)cc3OC)ccc2N(C)C)c1 [Compound 22, N-(3-((3-(dimethylamino)-6-((2-methoxy-4-(4-methylpiperazin-1-yl)phenyl)amino)pyridin-2-yl)ox)phenyl)acrylamide] | 300 to 30000 |
| C#Cc1ccc(Nc2ccc(N3CCN(C)CC3)cc2OC)nc1Oc1cccc(NC(=O)C=C)c1 [Compound 23, N-(3-((3-ethynyl-6-((2-methoxy-4-(4-methylpiperazin-1-yl)phenyl)amino)pyridin-2-yl)oxy)phenyl)acrylamide] | 300 to 30000 |
| C=CC(=O)Nc1cccc(N(C)c2cccc(Nc3ccc(N4CCN(C)CC4)cc3OC)n2)c1 [Compound 24, N-(3-((6-((2-methoxy-4-(4-methylpiperazin-1-yl)phenyl)amino)pyridin-2-yl)(methyl)amino)phenyl)acrylamide] | 300 to 30000 |
| C=CC(=O)Nc1cccc(N(Cc2ccccc2)c2cccc(Nc3ccc(N4CCN(C)CC4)cc3OC)n2)c1 [Compound 25, N-(3-(benzyl(6-((2-methoxy-4-(4-methylpiperazin-1-yl)phenyl)amino)pyridin-2-yl)amino)phenyl)acrylamide] | 300 to 30000 |
| C=CC(=O)Nc1cccc(Oc2nc(N(C)c3ccc(N4CCNCC4)cc3)ccc2Cl)c1 [Compound 26] | 300 to 30000 |
| C=CC(=O)Nc1cccc(Oc2nc(N(Cc3ccccc3)c3ccc(N4CCNCC4)cc3)ccc2Cl)c1 [Compound 27, N-(3-((6-(benzyl(4-(piperazin-1-yl)phenyl)amino)-3-chloropyridin-2-yl)oxy)phenyl)acrylamide] | 300 to 30000 |
| C=CC(=O)Nc1cc(Oc2nc(Nc3ccc(N4CCN(C)CC4)cc3OC)ccc2N2CCCC2)ccc1C [Compound 29, N-(5-((6-((2-methoxy-4-(4-methylpiperazin-1-yl)phenyl)amino)-3-(pyrrolidin-1-yl)pyridin-2-yl)oxy)-2-methylphenyl)acrylamide] | 3 to 300 |
| C=CC(=O)Nc1cc(Oc2nc(Nc3ccc(N4CCN(C)CC4)cc3OC)ccc2N2CCOCC2)ccc1C [Compound 30, N-(5-((6-((2-methoxy-4-(4-methylpiperazin-1-yl)phenyl)amino)-3-morpholinopyridin-2-yl)oxy)-2-methylphenyl)acrylamide] | 3 to 300 |
| C=CC(=O)Nc1cc(Oc2nc(Nc3ccc(N4CCN(C)CC4)cc3OC)ccc2N2CCC(O)C2)ccc1C (stereo not drawn) [Compound 31, N-(5-((3-(3-hydroxypyrrolidin-1-yl)-6-((2-methoxy-4-(4-methylpiperazin-1-yl)phenyl)amino)pyridin-2-yl)oxy)-2-methylphenyl)acrylamide] | 3 to 300 |
| C=CC(=O)Nc1cc(Oc2nc(Nc3ccc(N4CCN(C)CC4)cc3OC)ccc2N2CCCC(O)C2)ccc1C (stereo not drawn) [Compound 32, N-(5-((3-(3-hydroxypiperidin-1-yl)-6-((2-methoxy-4-(4-methylpiperazin-1-yl)phenyl)amino)pyridin-2-yl)oxy)-2-methylphenyl)acrylamide] | 3 to 300 |
| C=CC(=O)Nc1cc(Oc2nc(Nc3ccc(N4CCN(C)CC4)cc3OC)ccc2N2CCN(C)CC2)ccc1C [Compound 33, N-(5-((6-((2-methoxy-4-(4-methylpiperazin-1-yl)phenyl)amino)-3-(4-methylpiperazin-1-yl)pyridin-2-yl)oxy)-2-methylphenyl)acrylamide] | 3 to 300 |
| C=CC(=O)Nc1cc(Oc2nc(Nc3ccc(N4CCN(C)CC4)cc3OC)ccc2-c2ccccc2)ccc1C [Compound 34, N-(5-((6-((2-methoxy-4-(4-methylpiperazin-1-yl)phenyl)amino)-3-phenylpyridin-2-yl)oxy)-2-methylphenyl)acrylamide] | 3 to 300 |
